Data set [1] concerns SOD-deficient E. coli JI132. The data set can be described thus: Aerobic growth of SOD-deficient E. coli in minimal medium. Format: cell-based. The conditions noted are these: minimal (five amino acids) medium. The method, then: FIG. 13. […] The 20 mM ethanolic/albumin solution of compound was diluted into the medium. Also the growth of SOD-deficient E. coli was followed in the presence of 0.15% ethanol only (squares).
SOD activity can be monitored in the presence and absence of EDTA using the method of McCord and Fridovich (J. Biol. Chem. 244:6049 (1969)). The efficacy of a mimetic can also be determined by measuring the effect of the mimetic on the aerobic growth of a SOD null E. coli strain versus a parent strain. Specifically, parental E. coli (AB1157) and SOD null E. coli. […]
Effects on E. coli. E. coli strains AB1157 (SOD-proficient, wild type) and JI132 (SOD-deficient, sodAsodB) were obtained from J. A. Imlay (Imlay et al, J. Bacteriol. 169:2967 (1987)). […] Cultures were treated as previously described (Faulkner et al, J. Biol. Chem. 269:23471 (1994); Benov et al, J. Biol. Chem. 273:10313 (1998)). Due to the low water solubility, the compounds were solubilized with albumin in medium at a 1:1 molar ratio. Albumin itself had no effect on growth in the concentration range employed. Since methanol was toxic to the SOD-deficient strain of E. coli even when present in medium at 0.15%, the stock solutions of the compounds were prepared in ethanol.

Data set [2] is described as follows: pH* titration / protonation of the ligand. Format: physicochemical. Conditions: 90/10 methanol/aqueous solution, 0.01 M tris and Pipes buffer. As for the experimental part: Uv/vis Spectroscopy. […] Also the effects of EDTA, H2O2, and the methanol/water ratio on the stability of the manganese(III) complex were examined. […] Tris and Pipes buffers along with 1.0 M methanol/aqueous (90/10) solution of HCl were used for pH^* adjustments in methanol/aqueous solutions. The pH^* readings were measured on an Oakton pH-Meter equipped with a Denver Instruments combination glass electrode that was calibrated in methanol/water (90/10, v/v) buffer solutions: 10 mM oxalic acid/10 mM ammonium oxalate (pH^*=3.59) and 10 mM succinic acid/lithium hydrogen succinate (pH^*=6.55) (De Ligny et al. A. Rec. Trav. Chim. Pays-Bas 79:699 (1960)). When needed the biliverdin and biliverdin dimethylester as well as their reduced forms bilirubin and bilirubin dimethylester were studied.
Uv/Vis Spectroscopy. At pH^* 7.4 biliverdin dimethylester is in a fully deprotonated form, BVDME^3−. […] Carboxyl groups are separated from the main chromophores by two methylene groups, so that their ionization is not detectable spectrophotometrically. Thus the spectra of biliverdin and its ester are the same (Gray et al, J. Chem. Soc. 2276 (1961); Kuenzle et al. Biochem. J. 130:1147 (1972); O'Carra, Nature 899 (1962)). […] The kinetic trace recorded upon fast mixing of the 30 μM BVDME^3− with 75 μM or 150 μM MnCl2, fits to a single-exponential equation with a zero intercept. […]

Data set [3] can be described thus: Degradation by H2O2 followed by uv/vis spectroscopy. Format: physicochemical. The conditions noted are these: pH 7.8; for fraction degraded by H2O2: 4.4 h, 60 μM. From the text: Uv/vis Spectroscopy. […] Also the effects of EDTA, H2O2, and the methanol/water ratio on the stability of the manganese(III) complex were examined. […] 79:699 (1960)). When needed the biliverdin and biliverdin dimethylester as well as their reduced forms bilirubin and bilirubin dimethylester were studied. At μM concentrations, manganese(III) and iron(III) porphyrins are degraded by H2O2 in aqueous solution. pH 7.8 (Batinic-Haberle et al, Inorg. Chem. 38:4011 (1999), Everett et al, J. Trans. Faraday Soc. 49:410 (1953)). […] The reaction was followed in 90/10, v/v methanouaqueous solution at pH^* 7.9. […] The uv/vis spectroscopy indicated degradation via the reduction of biliverdin to bilirubin followed by loss of metal (Gray et al, J. Chem. Soc. 2276 (1961); Kuenzle et al, Biochem. J. 130:1147 (1972); […], Nature 899 (1962)). The interaction of biliverdin and bilirubin with H2O, was also followed in 0.05 M tris buffer, pH 7.8. As observed for its metal complex, biliverdin undergoes reduction by H2O2 via bilirubin. Under pseudo-first order conditions (6 mM to 60 mM H2O2, 60 μM biliverdin), the second-order rate constant was k=3×10^-3 M^-1 s^-1. Bilirubin is more resistant to H2O2 than biliverdin or its metal complex. The disappearance of bilirubin was followed at 435 nm (Gray et al, J. Chem. Soc. 2268 (1961)). Under conditions given above and at 60 mM H2O2, about 40% of the biliverdin and 14% of bilirubin was degraded within 4.4 hours, and about 14% of the complex was degraded inside 80 min.

Data set [4] can be described thus: SOD activity, xanthine oxidase/cytochrome c method. Format: biochemical. The conditions noted are these: for SOD-like activity (in words): 0.05 M phosphate buffer, pH 7.8, 0.1 mM EDTA. As for the experimental part:
FIG. 12. […] The v0 is the rate of reduction of 10 μM cytochrome c by O2. The vi is the rate of reduction of cytochome c inhibited by the porphyrin catalyst in the presence of 0.1 mM EDTA in 0.05 M tris buffer at pH 7.8. 40 μM xanthine. ˜2 nM xanthine oxidase at 25° C. The total volume of the assay solution is 3 mL.
SOD Activity. Catalysis of the dismutating of O2 in vitro was followed by the xanthine oxidase/cytochrome c method (McCord et al, J. Biol. Chem. 244:6049 (1969)).
Dismutation of superoxide anion, O2^−. Assays were conducted in 0.05 M aqueous phosphate buffer, pH 7.8, 0.1 mM EDTA, ±15 μg/mL of catalase, ±albumin. Rate constants for the reaction with O2^−were based upon the competition of the compounds with cytochrome c.
(§1) Two metallotetrapyrroles were tested for antioxidant activity, in vitro. In particular, the compounds were assayed for their ability to dismutate superoxide in the indirect method that utilizes xanthine and xanthine oxidase to generate superoxide and cytochrome c reduction as indicator of superoxide flux. […] The compounds were also assayed for their ability to prevent lipid peroxidation of rat brain homogenates by iron and ascorbate. The mixture of iron and ascorbate generates reactive oxygen species that oxidize biological lipids and these oxidized lipids can be detected as species that react with thiobarbituric acid (TBARS).
a) SOD activity determined using a xanthine oxidase/cytochrome c assay

The conditions of data set [5]: H4BV^+; literature (Gray et al; Kuenzle et al; O'Carra); cited from earlier work.
Data set [6] can be described thus: Cyclic voltammetry, metal-centered redox potential. Format: physicochemical. Conditions: Mn(III)/Mn(II) couple. The method, then:
Manganese(III) Salen. The compound was prepared by the published procedure (Boucher, J. lnorg. Nucl. Chem. 36:531 (1974)). The uv/vis in water: ε235=3.70×10^4 cm^−1 M^−1, ε279=1.70×10^4 cm^−1 M^−1, ε397=4.60×10^3 cm^−M^−1. The elemental analysis: Anal. Calcd for Mn^IIIsalenCl, C16H14N2O2MnCl: C, 53.88; H, 3.96; N; 7.85. Found: C, 54.02; H, 4.06; N, 7.85. […] Based on the E1/2 of Mn^IIITM-2-PyP^5+, ferrocenemethanol and of K3Fe(CN)6 in water and methanol, the redox potential of Mn^III salen^+ in water was calculated to be E1/2=−0.13 V vs NHE.
Electrochemistry of the Manganese(III) Biliverdin Dimethylester. Measurements were made using a CH Instruments model 600 voltammetric analyzer as described previously(Batinic-Haberle et al, Inorg. Chem. 38:4011 (1999)). A three-electrode system in a small volume (0.5-3.0 mL), with a 3 mm diameter glassy carbon button working electrode (Bioanalytical Systems), Ag/AgCl reference electrode (3 M NaCl, Bioanalytical Systems), and a Pt wire (0.5 mm) as auxiliary electrode, were used. The cyclic votammetry was performed on 0.5 mM (per manganese) methanol/aqueous (90/10, v/v) solutions of the compounds investigated. The ionic strength was kept at 0.10 M (NaCl), and 0.05 M tris buffer was used for pH^* adjustment. For calibration purposes, compounds of different hydrophilicities, […], (Kolthof et al, J. Phys. Chem. 39:945 (1935)) ferrocenemethanol and Mn^IIITM-2-PyP^5+ were studied in both aqueous and methanol/aqueous (90/10, v/v) solutions (I=0.10 M NaCl, 0.05 M tris buffer, pH^* 7.9). In all cases the measured E1/2 was 170 mV more positive in methanolic than in aqueous solution and this value was used to predict the redox potential in aqueous solution from measurement in methanol/aqueous solution.

The nature of data set [7]: SOD activity, xanthine oxidase/cytochrome c method. Format: biochemical. The conditions noted are these: absence of EDTA.
In data set [8] the test system is rat brain homogenates. The data set can be described thus: Lipid peroxidation of rat brain homogenates by iron/ascorbate (TBARS). Type of data set: biochemical. Conditions: concentration that reduced lipid peroxidation by one-half. The method, then:
The ability of mimetics to inhibit lipid peroxidation can be assessed as described by Day et al, Free Rad. Biol. Med. 26:730 (1990). Iron and ascorbate can be used to initiate lipid peroxidation in tissue homogenates and the formation of thiobarbituric acid reactive species (T BARS) measured.
as §1, with “(TBARS). Both compounds could inhibit the formation of TBARS and this ability correlated with their superoxide dismutase (SOD) activity (Table 5).” for “(TBARS).”
b) Lipid peroxidation was initiated in rat brain homogenates with iron/ascorbate and the IC50 is the concentration of compound that reduced lipid peroxidation by one-half.

Data set [9] in a line: Hydrolysis / dissociation of the complex in methanol/aqueous or water solution. Type of data set: physicochemical. Conditions: water. As for the experimental part: Uv/vis Spectroscopy. […] Also the effects of EDTA, H2O2, and the methanol/water ratio on the stability of the manganese(III) complex were examined. […] […] 79:699 (1960)). When needed the biliverdin and biliverdin dimethylester as well as their reduced forms bilirubin and bilirubin dimethylester were studied. […] In a week, at 25° C., only 14% of the complex dissociated. When the water content was increased to 43%, half the complex dissociated in a week.

Marks after values point to notes of the source that are not given here.

For `C=CC1=C(C)/C(=C/C2=NC(=C\c3[nH]c(/C=C4/NC(=O)C(C)=C4C=C)c(C)c3CCC(=O)OC)/C(CCC(=O)OC)=C2C)NC1=O` [BVDME^3−, Biliverdin IX dimethylester, reference compound], in data set [1], the “effect on SOD-deficient E. coli growing under aerobic conditions (in words)” value was “neither beneficial nor toxic”. Further, the “pH* region in which protonation occurs” value in data set [2] is “below 4”.

In general, pKa refers to the pH at which an ionisable group is half protonated. In the case of `C=CC1=C(C)/C(=C/C2=NC(=C\c3[nH]c(/C=C4\NC(=O)C(C)=C4C=C)c(C)c3CCC(=O)O)/C(CCC(=O)O)=C2C)NC1=O` [biliverdin, biliverdin IX], the “second-order rate constant k of reaction with H2O2” value in data set [3] (0.05 M tris buffer, 6 mM to 60 mM H2O2, 60 μM) turned out to be 0.003 M⁻¹ s⁻¹. The “fraction degraded by H2O2” value in data set [3] is given as “about 40%”. For the same molecule, the “SOD-like activity (in words)” value in data set [4] was “Neither biliverdin nor bilirubin showed any observable SOD-like activity”. In addition, the pKa in data set [5] is ~3.

For the molecule `[Cl-].[Mn+3].[O-]c1ccccc1C=NCCN=Cc1ccccc1[O-]` [Mn^III/IIsalen^−/0, Manganese(III) Salen, reference compound], in [4], the “SOD-like activity (in words)” value is recorded as “observed only in the absence of chelator”. For the same molecule, the “E1/2, V vs Ag/AgCl” value in data set [6] (90/10 (v/v) methanol/aqueous solution, pH* 7.9) is −0.23 V vs Ag/AgCl. Further, the “E1/2, V vs NHE” value in data set [6] (extrapolated/calculated redox potential in aqueous solution) is on record as −0.13 V vs NHE. In data set [7], the SOD specific activity is on record as 700^f U/mg. Further, in data set [7] (25° C.), the “kcat, O2^− dismutation” value is recorded as 6.0 × 10^5f M^−1 s^−1.

Turning to `C=CC1=C(C)/C(=C/c2[nH]c(Cc3[nH]c(/C=C4\NC(=O)C(C)=C4C=C)c(C)c3CCC(=O)O)c(CCC(=O)O)c2C)NC1=O` [bilirubin, bilirubin IX], the “fraction degraded by H2O2” value in data set [3] is “about 14%”.

A word on the IC50: it is the point on the concentration scale where inhibition reaches its midpoint. Low values mean inhibition by little substance, high ones a need for much substance. Turning to “manganese (III) bilirubin ditaurate [MnBRDT]”, the “SOD Activity” value in data set [4] (xanthine oxidase/cytochrome c assay) was found to be 6.2 USOD/mg. Half-maximal inhibition in [8] (IC50) was put at 70 µM.

In the case of `C=CC1=C(C)C2=CC3=NC(=Cc4c(CCC(=O)O)c(C)c5[n]4[Mn]([O]C4=NC(=Cc6c(C)c(CCC(=O)O)c7[n]6[Mn]([O]C6=NC(=C5)C(C=C)=C6C)[N]5C(=O)C(C=C)=C(C)C5=CC5=NC(=C7)C(CCC(=O)O)=C5C)C(C=C)=C4C)[N]2C1=O)C(CCC(=O)O)=C3C` [(Mn^IIIBV)2, Mn^III Biliverdin], in [9], the “stability in water solution” value is listed as “lacks adequate stability in water solution”.

(Values after US20040039211A1, “Tetrapyrroles” (DUKE UNIVERSITY AND NATIONAL JEWISH MEDICAL AND RESEARCH …, priority 2000, published 2004).)
